{
  "source": "patent US9023841B2",
  "about": "“Compositions and methods for the treatment of asthma and associated disorders” (University of Southern California, priority 2011, dated 2015)",
  "key": {"BALB/c mice [1]": {"tested_on": "BALB/c mice", "experiment": "OVA-induced AHR in BALB/c mice treated with autophagy inducers or inhibitor (whole body plethysmography, PenH)", "format": "in vivo", "settings": "i.p., DCMI 1 mg/kg, tamoxifen 100 μM, clonidine 0.1 mg/kg, carbamazepine 20 mg/kg, compared to OVA controls", "description": "FIGS. 3A to 3E illustrate altered development of AHR and lung inflammation in BALB/c mice treated with autophagy inducers and inhibitor. FIG. 3A is a schematic for the sensitization and challenge protocol with administration of autophagy inhibitors and inducers via i.p. injection. FIGS. 3B and C show AHR was determined by whole body plethysmography and is expressed as mean PenH in the presence or absence of (FIG. 3B) autophagy inhibitor desmethylclomipramine (“DCMI”) 1 mg/kg or (FIG. 3C) autophagy inducers tamoxifen 100 μM, clonidine 0.1 mg/kg or carbamazepine 20 mg/kg. FIGS. 3D and E are a quantitative determination of cellular infiltration into BAL was determined by cytospin preparation in the presence or absence of (FIG. 3D) autophagy inhibitor and (FIG. 3E) autophagy inducers. Representative data from two independent experiments with 3 mice per group, expressed as mean±SEM. PBS refer to naïve BALB/c animals. Figure legend: Total: Total of number of cells in the BAL, PMN: polymorphonuclear cells, EOS: Eosinophils, MACRO: Macrophages, Lymph: Lymphocytes\nAutophagy inducers (Carbamazepin, Tamoxifen, and Clonidine) and inhibitors (DCMI) were administered on days 10 to 13 (FIG. 9A). […] This was the opposite when treated with the autophagy inducers (Carbamazepin, Tamoxifen, and Clonidine) (FIG. 9C). Therefore, autophagy is an important mediator in AHR.\nThere are many reported small molecule inducers and inhibitors of autophagy (Balgi et al. (2009) PLoS One 4:e7124; Mizushima et al. (2006) Autophagy 2:302-304; Vooijs et al. (2001) EMBO Rep 2:292-297; Fujita et al. (2008) Mol Biol Cell 19:2092-2100; Kuma et al. (2004) Nature 432:1032-1036; Inoue et al. (2011) Biochem Biophys Res Commun 405:13-18). In preliminary studies, Applicant has used a range of different inducers (tamoxifen (Akbari et al. (2001) Nat Immunol 2:725-731), clonidine (Mizushima et al. (2006) Autophagy 2:302-304) and carbamazepine (Renna et al. (2010) J Biol Chem 285:11061-11067)) and one inhibitor (desmethylclomipramine (“DCMI”) (Balgi et al. (2009) PLoS One 4:e7124)). A standard sensitization and challenge protocol was used for the induction of AHR in BALB/c (FIG. 3A). […] This is in agreement with Applicant's findings using the Atg5Δ animals that inhibition of autophagy has a deleterious effect on lung function. When autophagy is induced (with tamoxifen, clonidine or carbamazepine) AHR after sensitization and challenge with OVA is reduced compared to controls (FIG. 3C). […] When autophagy is inhibited total cell numbers in the BAL are increased (FIG. 3D) in contrast, in the presence of autophagy inducers total cell numbers and in particular eosinophils are reduced (FIG. 3E)."}, "BALB/c mice [2]": {"tested_on": "BALB/c mice", "experiment": "Cellular infiltration into BAL by cytospin preparation, OVA model", "format": "in vivo", "settings": "OVA sensitized and challenged BALB/c, i.p. treatment", "description": "FIGS. 3A to 3E illustrate altered development of AHR and lung inflammation in BALB/c mice treated with autophagy inducers and inhibitor. FIG. 3A is a schematic for the sensitization and challenge protocol with administration of autophagy inhibitors and inducers via i.p. injection. FIGS. 3B and C show AHR was determined by whole body plethysmography and is expressed as mean PenH in the presence or absence of (FIG. 3B) autophagy inhibitor desmethylclomipramine (“DCMI”) 1 mg/kg or (FIG. 3C) autophagy inducers tamoxifen 100 μM, clonidine 0.1 mg/kg or carbamazepine 20 mg/kg. FIGS. 3D and E are a quantitative determination of cellular infiltration into BAL was determined by cytospin preparation in the presence or absence of (FIG. 3D) autophagy inhibitor and (FIG. 3E) autophagy inducers. Representative data from two independent experiments with 3 mice per group, expressed as mean±SEM. PBS refer to naïve BALB/c animals. Figure legend: Total: Total of number of cells in the BAL, PMN: polymorphonuclear cells, EOS: Eosinophils, MACRO: Macrophages, Lymph: Lymphocytes […]"}, "[3]": {"tested_on": "moderate to severe patients with asthma", "settings": "clinical trial; cited from earlier work"}, "BALB/c mice [4]": {"tested_on": "BALB/c mice", "experiment": "Acute OVA-induced AHR (PenH, methacholine challenge), a4-vFLIP peptide", "format": "in vivo", "settings": "acute OVA model, 300 μg i.p. days 11 to 13, compared to OVA+TAT pep, P<0.003", "description": "Briefly on day 1, naïve BALB/c mice (N=5 per group) received an intraperitoneal (i.p.) injection with ovalbumin (OVA) ([…]) in Alum (2 mg). After resting for 10 days, mice were treated intranasally (i.n.) with OVA (50 μg) and i.p. with the autophagy inducer α4-TAT-vFLIP ([…]) on days 11 to 13. On day 14, the enhanced pause (PenH) variable was measured to determine airway hyperreactivity (AHR).\nBriefly, administration of alpha4-TAT-vFLIP (a.k.a. a4-vFLIP) peptide restores lung function in an acute model of OVA induced asthma. Increasing doses of methacholine, a muscarinic receptor agonist to induce AHR, was administered to the different treatment groups of mice and the PenH was determined. […] Ctrl group (dark triangles) after methacholine challenge. […] Therefore, the autophagy peptide inducer a4-vFLIP was able to reduce AHR after OVA challenge."}, "BALB/c mice [5]": {"tested_on": "BALB/c mice", "experiment": "Lung histology (hematoxylin and eosin), HDM model", "format": "in vivo", "settings": "HDM+vFLIP compared to HDM alone", "description": "(§1) Thereafter, lung sections were stained with hematoxylin and eosin (HE) from the different groups in the HDM and OVA models. Airway inflammation and remodeling were decreased in the HDM/OVA+vFLIP compared to OVA/HDM alone based on smooth muscle hyperplasia, epithelial cell proliferation, subepithelial fibrosis and basement membrane thickening."}, "BALB/c mice [6]": {"tested_on": "BALB/c mice", "experiment": "Lung histology (hematoxylin and eosin), OVA model", "format": "in vivo", "settings": "OVA+vFLIP compared to OVA alone", "description": "as §1"}, "BALB/c mice [7]": {"tested_on": "BALB/c mice", "experiment": "Chronic OVA-induced AHR (PenH)", "format": "in vivo", "settings": "TAT as irrelevant peptide control", "description": "BALB/c mice were treated with OVA to induce chronic AHR and administered a4-TAT-vFLIP (as autophagy inducer) and TAT (as irrelevant peptide, control). AHR was assessed by Pen H (enhanced pause)."}, "BALB/c mice [8]": {"tested_on": "BALB/c mice", "experiment": "Acute HDM-induced AHR (PenH, methacholine challenge), a4-vFLIP peptide", "format": "in vivo", "settings": "acute HDM model, 300 μg i.p. days 13 to 15, compared to HDM+TAT pep, P<0.003", "description": "FIG. 9D illustrates a protocol to induce acute AHR by HDM. On day 1, naïve BALB/c mice (N=5 per group) received an intranasal (i.n.) injection with house dust mite (HDM) ([…]). After resting for 6 days, mice were treated intranasally (i.n.) with HDM ([…]) from days 7 to 14 and i.p. with the autophagy inducer a4-TAT-vFLIP (300 μg) on days 13 to 15. On day 16, the enhanced pause (PenH) variable was measured to determine airway hyperreactivity (AHR).\nIncreasing doses of methacholine, a muscarinic receptor agonist to induce AHR, was administered to the different treatment groups of mice and the PenH was determined. […] Ctrl group (dark triangles) after methacholine challenge. […] Therefore, the autophagy peptide inducer was able to reduce AHR after HDM challenge."}},
  "note": "Entries after “also recorded” stand apart in the source; their conditions may differ.",
  "data": [
    {"compound": "CNCCCN1c2ccccc2CCc2ccc(Cl)cc21", "note": "[DCMI, desmethylclomipramine]", "values": [
      {"measurement": "AHR (mean PenH) after sensitization and challenge with OVA", "setting": "BALB/c mice [1]", "value": "greatly increased; also recorded: significant increase"},
      {"measurement": "total cell numbers in the BAL", "setting": "BALB/c mice [2]", "value": "increased"}
    ]},
    {"compound": "Clc1cccc(Cl)c1N=C1NCCN1", "note": "[clonidine]", "values": [
      {"measurement": "AHR (mean PenH) after sensitization and challenge with OVA", "setting": "BALB/c mice [1]", "value": "reduced"},
      {"measurement": "AHR (mean PenH) after sensitization and challenge with OVA", "setting": "BALB/c mice [1]; listed as Clonidine", "value": "opposite"}
    ]},
    {"compound": "NC(=O)N1c2ccccc2C=Cc2ccccc21", "note": "[carbamazepine]", "values": [
      {"measurement": "AHR (mean PenH) after sensitization and challenge with OVA", "setting": "BALB/c mice [1]", "value": "reduced"},
      {"measurement": "AHR (mean PenH) after sensitization and challenge with OVA", "setting": "BALB/c mice [1]; listed as Carbamazepin", "value": "opposite"},
      {"measurement": "efficacy for the treatment of asthma", "setting": "[3]", "value": "improve asthma; also recorded: high efficacy"}
    ]},
    {"compound": "CC/C(=C(\\c1ccccc1)c1ccc(OCCN(C)C)cc1)c1ccccc1", "note": "[tamoxifen]", "values": [
      {"measurement": "AHR (mean PenH) after sensitization and challenge with OVA", "setting": "BALB/c mice [1]", "value": "reduced"},
      {"measurement": "AHR (mean PenH) after sensitization and challenge with OVA", "setting": "BALB/c mice [1]; listed as Tamoxifen", "value": "opposite"}
    ]},
    {"compound": "RRRQRRKKRGY-G-LMNSFVCLIVSS (RRRQRRKKRGYGLMNSFVCLIVSS) [a4-vFLIP, autophagy peptide inducer, 24aa TAT-fused α4 vFLIP peptide]", "values": [
      {"measurement": "AHR (PenH) after methacholine challenge", "setting": "BALB/c mice [4]", "value": "statistically significant reduction"},
      {"measurement": "Airway inflammation and remodeling (smooth muscle hyperplasia, epithelial cell proliferation, subepithelial fibrosis, basement membrane thickening)", "setting": "BALB/c mice [5]", "value": "decreased"},
      {"measurement": "Airway inflammation and remodeling (smooth muscle hyperplasia, epithelial cell proliferation, subepithelial fibrosis, basement membrane thickening)", "setting": "BALB/c mice [6]", "value": "decreased"},
      {"measurement": "chronic AHR (PenH)", "setting": "BALB/c mice [7]", "value": "decreased levels of AHR"},
      {"measurement": "AHR (PenH) after methacholine challenge", "setting": "BALB/c mice [8]", "value": "statistically significant reduction"}
    ]}
  ]
}
